From PMC4620497 (Scientific Reports, 2015)
Read-outs that look alike come from different tables or passages of the source.

Columns and labels:
[1] = molecular target: ERN1 (Homo sapiens, UniProt O75460); design: method as in earlier work; conditions: Table S1; cited from earlier work
[2] = molecular target: T1, CDK3 (Homo sapiens, UniProt Q00526); assay: KINOMEscan panel screen; type: binding; conditions: read-out: Percent Control(%)
T1 construct: purchased DiscoveRx KINOMEscan (Ambit Biosciences)

[3] = molecular target: T2, CSNK1G2 (Homo sapiens, UniProt P78368); assay: KINOMEscan panel screen; type: binding; conditions: read-out: Percent Control(%)
T2 construct: purchased DiscoveRx KINOMEscan (Ambit Biosciences)

[4] = molecular target: T3, MAPKAPK5 (Homo sapiens, UniProt Q8IW41); assay: KINOMEscan panel screen; type: binding; conditions: read-out: Percent Control(%)
T3 construct: purchased DiscoveRx KINOMEscan (Ambit Biosciences)

[5] = molecular target: T4, NEK4 (Homo sapiens, UniProt P51957); assay: KINOMEscan panel screen; type: binding; conditions: read-out: Percent Control(%)
T4 construct: purchased DiscoveRx KINOMEscan (Ambit Biosciences)

[6] = molecular target: T5, TNNI3K (Homo sapiens, UniProt Q59H18); assay: KINOMEscan panel screen; type: binding; conditions: read-out: Percent Control(%)
T5 construct: purchased DiscoveRx KINOMEscan (Ambit Biosciences)

[7] = molecular target: T6, FGFR1 (Homo sapiens, UniProt P11362); assay: KINOMEscan panel screen; type: binding; conditions: read-out: Percent Control(%)
T6 construct: purchased DiscoveRx KINOMEscan (Ambit Biosciences)
T6 sequence (P11362 22-822): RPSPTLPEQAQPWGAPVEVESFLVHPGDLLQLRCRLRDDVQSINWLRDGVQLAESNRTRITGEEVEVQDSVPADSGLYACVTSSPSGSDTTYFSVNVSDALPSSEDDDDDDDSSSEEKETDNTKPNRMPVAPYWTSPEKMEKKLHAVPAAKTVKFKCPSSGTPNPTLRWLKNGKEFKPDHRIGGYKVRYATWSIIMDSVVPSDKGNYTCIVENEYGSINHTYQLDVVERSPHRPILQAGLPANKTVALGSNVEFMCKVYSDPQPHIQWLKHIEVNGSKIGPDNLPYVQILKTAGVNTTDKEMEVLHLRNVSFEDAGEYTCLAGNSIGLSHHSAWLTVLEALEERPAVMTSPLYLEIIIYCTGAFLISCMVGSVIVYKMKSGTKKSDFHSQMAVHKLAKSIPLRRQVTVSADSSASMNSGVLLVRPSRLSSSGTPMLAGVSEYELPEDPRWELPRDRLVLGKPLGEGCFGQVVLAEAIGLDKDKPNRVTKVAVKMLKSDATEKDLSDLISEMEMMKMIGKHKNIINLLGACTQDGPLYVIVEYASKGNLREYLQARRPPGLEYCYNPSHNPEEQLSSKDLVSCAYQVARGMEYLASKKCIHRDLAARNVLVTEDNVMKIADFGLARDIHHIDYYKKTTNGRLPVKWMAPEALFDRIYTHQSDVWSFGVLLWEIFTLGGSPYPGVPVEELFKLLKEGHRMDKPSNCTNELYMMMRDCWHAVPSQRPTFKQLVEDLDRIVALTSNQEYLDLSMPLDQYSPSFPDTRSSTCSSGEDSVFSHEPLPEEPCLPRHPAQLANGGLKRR

[8] = molecular target: T7, ABL1(E255K)-phosphorylated (Homo sapiens, UniProt P00519, E255K); assay: KINOMEscan panel screen; type: binding; conditions: read-out: Percent Control(%)
T7 construct: purchased DiscoveRx KINOMEscan (Ambit Biosciences)

[9] = molecular target: T8, TIE2 (Homo sapiens, UniProt Q02763); assay: KINOMEscan kinase binding assay (Kd)
T8 construct: purchased DiscoveRx KINOMEscan (Ambit Biosciences)

[10] = molecular target: T9, MST3 (Homo sapiens, UniProt Q9Y6E0); assay: KINOMEscan panel screen; type: binding; conditions: read-out: Percent Control(%)
T9 construct: purchased DiscoveRx KINOMEscan (Ambit Biosciences)

[11] = tested on: FLT3(ITD); assay: KINOMEscan panel screen; type: binding, human; conditions: 10 μM
[12] = molecular target: T10, PCTK1 (Homo sapiens, UniProt Q00536); assay: KINOMEscan panel screen; type: binding; conditions: read-out: Percent Control(%)
T10 construct: purchased DiscoveRx KINOMEscan (Ambit Biosciences)

[13] = molecular target: T11, PLK4 (Homo sapiens, UniProt O00444); assay: KINOMEscan panel screen; type: binding; conditions: read-out: Percent Control(%)
T11 construct: purchased DiscoveRx KINOMEscan (Ambit Biosciences)

[14] = molecular target: T12, PDGFRα (Homo sapiens, UniProt P16234); assay: KINOMEscan kinase binding assay (Kd)
T12 construct: purchased Ambit Biosciences (KINOMEscan)

[15] = molecular target: T13, CAMK1D (Homo sapiens, UniProt Q8IU85); assay: KINOMEscan panel screen; type: binding; conditions: read-out: Percent Control(%)
T13 construct: purchased DiscoveRx KINOMEscan (Ambit Biosciences)
T13 sequence (Q8IU85 whole entry): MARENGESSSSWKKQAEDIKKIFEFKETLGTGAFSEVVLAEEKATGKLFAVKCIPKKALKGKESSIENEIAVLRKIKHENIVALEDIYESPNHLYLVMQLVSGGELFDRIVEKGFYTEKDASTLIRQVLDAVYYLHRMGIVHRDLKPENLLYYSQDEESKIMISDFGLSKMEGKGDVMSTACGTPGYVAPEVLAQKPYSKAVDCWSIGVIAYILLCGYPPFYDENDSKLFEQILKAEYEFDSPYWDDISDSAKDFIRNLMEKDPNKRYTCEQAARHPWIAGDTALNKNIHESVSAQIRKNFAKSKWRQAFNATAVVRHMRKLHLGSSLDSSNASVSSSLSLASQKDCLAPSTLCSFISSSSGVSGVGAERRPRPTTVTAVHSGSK

[16] = molecular target: T14, DAPK1 (Homo sapiens, UniProt P53355); assay: KINOMEscan panel screen; type: binding; conditions: read-out: Percent Control(%)
T14 construct: purchased DiscoveRx KINOMEscan (Ambit Biosciences)

[17] = molecular target: T15, CSNK1A1 (Homo sapiens, UniProt P48729); assay: KINOMEscan panel screen; type: binding; conditions: read-out: Percent Control(%)
T15 construct: purchased DiscoveRx KINOMEscan (Ambit Biosciences)

[18] = molecular target: T16, MEK1 (Homo sapiens, UniProt Q02750); assay: KINOMEscan panel screen; type: binding; conditions: read-out: Percent Control(%)
T16 construct: purchased DiscoveRx KINOMEscan (Ambit Biosciences)

[19] = molecular target: T17, PIK3CA(H1047Y) (Homo sapiens, UniProt P42336, H1047Y); assay: KINOMEscan panel screen; type: binding; conditions: read-out: Percent Control(%)
T17 construct: purchased DiscoveRx KINOMEscan (Ambit Biosciences)

[20] = tested on: Molm-13; assay: MTT cell viability assay; conditions: Homo sapiens, MOLM-13, 72 h
[21] = molecular target: T18, AKT2 (Homo sapiens, UniProt P31751); assay: KINOMEscan panel screen; type: binding; conditions: read-out: Percent Control(%)
T18 construct: purchased DiscoveRx KINOMEscan (Ambit Biosciences)

[22] = molecular target: T19, CSF1R (Homo sapiens, UniProt P07333); assay: KINOMEscan panel screen; type: binding; conditions: read-out: Percent Control(%)
T19 construct: purchased DiscoveRx KINOMEscan (Ambit Biosciences)

[23] = molecular target: T20, DAPK3 (Homo sapiens, UniProt O43293); assay: KINOMEscan panel screen; type: binding; conditions: read-out: Percent Control(%)
T20 construct: purchased DiscoveRx KINOMEscan (Ambit Biosciences)

[24] = molecular target: T21, ABL1(H396P)-phosphorylated (Homo sapiens, UniProt P00519, H396P); assay: KINOMEscan panel screen; type: binding; conditions: read-out: Percent Control(%)
T21 construct: purchased DiscoveRx KINOMEscan (Ambit Biosciences)

[25] = molecular target: T22, RET(V804M) (Homo sapiens, UniProt P07949, V804M); assay: KINOMEscan panel screen; type: binding; conditions: read-out: Percent Control(%)
T22 construct: purchased DiscoveRx KINOMEscan (Ambit Biosciences)

[26] = tested on: EGFR(L747-T751del,Sins); assay: KINOMEscan panel screen; type: binding; conditions: 10 μM
[27] = molecular target: T23, TAK1 (Homo sapiens, UniProt O43318); assay: KINOMEscan panel screen; type: binding; conditions: read-out: Percent Control(%)
T23 construct: purchased DiscoveRx KINOMEscan (Ambit Biosciences)

[28] = molecular target: T24, ERK1 (Homo sapiens, UniProt P27361); assay: KINOMEscan panel screen; type: binding; conditions: read-out: Percent Control(%)
T24 construct: purchased DiscoveRx KINOMEscan (Ambit Biosciences)

[29] = molecular target: LOK (Homo sapiens, UniProt O94804); assay: KINOMEscan kinase binding assay (Kd)
LOK, sequence (O94804 whole entry): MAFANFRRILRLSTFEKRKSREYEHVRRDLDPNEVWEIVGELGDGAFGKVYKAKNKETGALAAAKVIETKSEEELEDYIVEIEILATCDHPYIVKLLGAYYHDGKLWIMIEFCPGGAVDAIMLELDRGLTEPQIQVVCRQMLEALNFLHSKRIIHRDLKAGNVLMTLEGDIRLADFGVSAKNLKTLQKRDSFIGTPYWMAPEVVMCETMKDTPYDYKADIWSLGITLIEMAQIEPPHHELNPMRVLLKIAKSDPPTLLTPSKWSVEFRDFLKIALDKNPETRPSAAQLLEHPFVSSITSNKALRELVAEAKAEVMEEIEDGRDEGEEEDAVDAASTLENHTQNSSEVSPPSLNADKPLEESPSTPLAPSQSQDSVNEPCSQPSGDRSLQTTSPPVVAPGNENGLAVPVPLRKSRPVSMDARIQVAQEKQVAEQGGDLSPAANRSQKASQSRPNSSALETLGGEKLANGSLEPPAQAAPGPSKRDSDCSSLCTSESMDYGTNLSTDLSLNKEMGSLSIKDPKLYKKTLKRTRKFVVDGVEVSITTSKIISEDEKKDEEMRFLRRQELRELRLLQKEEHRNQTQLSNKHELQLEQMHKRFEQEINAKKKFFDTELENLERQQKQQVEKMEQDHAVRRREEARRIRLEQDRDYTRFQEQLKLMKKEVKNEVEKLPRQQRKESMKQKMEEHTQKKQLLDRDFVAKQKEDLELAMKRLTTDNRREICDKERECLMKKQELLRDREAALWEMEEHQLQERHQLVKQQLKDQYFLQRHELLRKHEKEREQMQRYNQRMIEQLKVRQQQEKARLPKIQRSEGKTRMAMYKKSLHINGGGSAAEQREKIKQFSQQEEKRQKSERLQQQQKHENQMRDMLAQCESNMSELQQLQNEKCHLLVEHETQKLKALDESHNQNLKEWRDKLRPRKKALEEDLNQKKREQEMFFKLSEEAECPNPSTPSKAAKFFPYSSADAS

[30] = molecular target: T25, GAK (Homo sapiens, UniProt O14976); assay: KINOMEscan panel screen; type: binding; conditions: read-out: Percent Control(%)
T25 construct: purchased DiscoveRx KINOMEscan (Ambit Biosciences)

[31] = molecular target: T26, ABL1-phosphorylated (Homo sapiens, UniProt P00519); assay: KINOMEscan panel screen; type: binding; conditions: read-out: Percent Control(%)
T26 construct: purchased DiscoveRx KINOMEscan (Ambit Biosciences)

[32] = molecular target: T27, FER (Homo sapiens, UniProt P16591); assay: KINOMEscan panel screen; type: binding; conditions: read-out: Percent Control(%)
T27 construct: purchased DiscoveRx KINOMEscan (Ambit Biosciences)

[33] = molecular target: T28, PIK3CB (Homo sapiens, UniProt P42338); assay: KINOMEscan panel screen; type: binding; conditions: read-out: Percent Control(%)
T28 construct: purchased DiscoveRx KINOMEscan (Ambit Biosciences)

[34] = molecular target: T29, BLK (Homo sapiens, UniProt P51451); assay: KINOMEscan panel screen; type: binding; conditions: read-out: Percent Control(%)
T29 construct: purchased DiscoveRx KINOMEscan (Ambit Biosciences)

[35] = molecular target: T30, PIP5K1A (Homo sapiens, UniProt Q99755); assay: KINOMEscan panel screen; type: binding; conditions: read-out: Percent Control(%)
T30 construct: purchased DiscoveRx KINOMEscan (Ambit Biosciences)

[36] = molecular target: T31, MYLK (Homo sapiens, UniProt Q15746); assay: KINOMEscan panel screen; type: binding; conditions: read-out: Percent Control(%)
T31 construct: purchased DiscoveRx KINOMEscan (Ambit Biosciences)

[37] = molecular target: T32, FLT3 (Homo sapiens, UniProt P36888); assay: KINOMEscan panel screen; type: binding; conditions: read-out: Percent Control(%)
T32 construct: purchased DiscoveRx KINOMEscan (Ambit Biosciences)
T32 sequence (P36888 27-993): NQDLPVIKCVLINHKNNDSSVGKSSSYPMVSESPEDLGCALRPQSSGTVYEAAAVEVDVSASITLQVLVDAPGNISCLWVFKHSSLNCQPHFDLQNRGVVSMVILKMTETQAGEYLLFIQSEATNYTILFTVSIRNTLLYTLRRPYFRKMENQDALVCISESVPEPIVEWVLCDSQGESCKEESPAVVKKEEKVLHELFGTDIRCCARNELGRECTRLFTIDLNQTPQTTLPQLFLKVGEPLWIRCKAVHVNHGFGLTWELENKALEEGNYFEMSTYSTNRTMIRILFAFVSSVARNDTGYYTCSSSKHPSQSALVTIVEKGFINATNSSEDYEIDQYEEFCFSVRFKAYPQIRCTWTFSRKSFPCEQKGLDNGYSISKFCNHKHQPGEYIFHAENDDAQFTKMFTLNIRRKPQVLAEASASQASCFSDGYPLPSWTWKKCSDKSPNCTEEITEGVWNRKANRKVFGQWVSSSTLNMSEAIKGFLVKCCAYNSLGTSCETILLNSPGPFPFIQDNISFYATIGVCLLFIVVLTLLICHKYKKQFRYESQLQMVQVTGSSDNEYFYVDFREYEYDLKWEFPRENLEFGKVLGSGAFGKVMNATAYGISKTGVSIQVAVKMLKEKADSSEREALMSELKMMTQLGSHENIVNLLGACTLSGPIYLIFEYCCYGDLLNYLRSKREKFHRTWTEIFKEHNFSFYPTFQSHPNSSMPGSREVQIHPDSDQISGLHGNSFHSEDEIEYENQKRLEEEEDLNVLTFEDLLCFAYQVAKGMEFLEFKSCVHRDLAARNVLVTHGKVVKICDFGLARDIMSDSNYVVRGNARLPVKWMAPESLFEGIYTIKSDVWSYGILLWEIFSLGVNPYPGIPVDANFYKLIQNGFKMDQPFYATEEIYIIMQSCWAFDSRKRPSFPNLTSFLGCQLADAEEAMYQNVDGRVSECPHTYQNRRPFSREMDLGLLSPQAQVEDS

[38] = molecular target: T33, PFTAIRE2 (Homo sapiens, UniProt Q96Q40); assay: KINOMEscan panel screen; type: binding; conditions: read-out: Percent Control(%)
T33 construct: purchased DiscoveRx KINOMEscan (Ambit Biosciences)

[39] = molecular target: T34, CLK3 (Homo sapiens, UniProt P49761); assay: KINOMEscan panel screen; type: binding; conditions: read-out: Percent Control(%)
T34 construct: purchased DiscoveRx KINOMEscan (Ambit Biosciences)
T34 sequence (P49761 whole entry): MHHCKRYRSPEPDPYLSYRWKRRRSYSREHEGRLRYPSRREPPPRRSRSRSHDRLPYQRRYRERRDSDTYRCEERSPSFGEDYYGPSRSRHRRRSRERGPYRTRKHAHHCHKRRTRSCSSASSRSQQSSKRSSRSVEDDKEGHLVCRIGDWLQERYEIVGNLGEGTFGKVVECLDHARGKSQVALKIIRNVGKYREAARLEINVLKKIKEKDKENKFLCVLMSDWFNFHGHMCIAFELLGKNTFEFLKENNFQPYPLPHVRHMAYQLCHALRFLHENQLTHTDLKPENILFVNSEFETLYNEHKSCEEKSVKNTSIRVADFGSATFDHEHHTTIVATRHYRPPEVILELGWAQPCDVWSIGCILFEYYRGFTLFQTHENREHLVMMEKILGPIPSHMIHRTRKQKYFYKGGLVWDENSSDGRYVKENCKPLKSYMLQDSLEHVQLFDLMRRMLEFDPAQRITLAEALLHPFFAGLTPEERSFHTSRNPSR

[40] = molecular target: T35, EGFR(T790M) (Homo sapiens, UniProt P00533, T790M); assay: KINOMEscan panel screen; type: binding; conditions: read-out: Percent Control(%)
T35 construct: purchased DiscoveRx KINOMEscan (Ambit Biosciences)
T35 sequence (P00533 25-1210 T790M): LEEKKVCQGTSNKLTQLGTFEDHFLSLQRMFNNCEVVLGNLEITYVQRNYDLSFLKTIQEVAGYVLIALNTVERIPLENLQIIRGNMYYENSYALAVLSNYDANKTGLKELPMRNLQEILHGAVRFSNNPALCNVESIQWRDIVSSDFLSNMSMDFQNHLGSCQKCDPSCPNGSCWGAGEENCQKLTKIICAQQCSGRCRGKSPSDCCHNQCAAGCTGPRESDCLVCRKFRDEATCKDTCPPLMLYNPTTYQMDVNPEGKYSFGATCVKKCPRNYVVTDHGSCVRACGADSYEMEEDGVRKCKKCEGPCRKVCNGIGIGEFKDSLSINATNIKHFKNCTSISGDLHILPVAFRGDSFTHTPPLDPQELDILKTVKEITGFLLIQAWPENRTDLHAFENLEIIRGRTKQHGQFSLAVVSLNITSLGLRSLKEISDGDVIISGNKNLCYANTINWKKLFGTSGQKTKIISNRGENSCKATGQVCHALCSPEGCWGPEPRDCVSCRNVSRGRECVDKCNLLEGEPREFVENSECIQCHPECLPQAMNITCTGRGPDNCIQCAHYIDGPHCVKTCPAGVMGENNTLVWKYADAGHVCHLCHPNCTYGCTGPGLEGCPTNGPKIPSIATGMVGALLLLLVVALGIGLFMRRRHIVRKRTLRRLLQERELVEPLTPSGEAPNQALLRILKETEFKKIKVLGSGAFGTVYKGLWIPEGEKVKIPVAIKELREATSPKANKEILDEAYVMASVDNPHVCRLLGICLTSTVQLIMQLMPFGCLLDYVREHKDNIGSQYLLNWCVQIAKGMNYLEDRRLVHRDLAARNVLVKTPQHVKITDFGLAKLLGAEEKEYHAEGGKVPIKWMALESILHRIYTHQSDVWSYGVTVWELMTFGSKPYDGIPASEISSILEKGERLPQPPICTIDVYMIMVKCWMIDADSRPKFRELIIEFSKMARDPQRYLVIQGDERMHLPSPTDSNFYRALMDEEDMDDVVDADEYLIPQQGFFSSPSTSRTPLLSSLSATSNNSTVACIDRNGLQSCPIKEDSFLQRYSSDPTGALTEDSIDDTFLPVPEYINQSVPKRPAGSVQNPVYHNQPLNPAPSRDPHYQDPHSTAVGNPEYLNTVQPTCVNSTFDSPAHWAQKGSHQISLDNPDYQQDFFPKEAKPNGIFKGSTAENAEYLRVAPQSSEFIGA

[41] = molecular target: T36, AMPK-alpha2 (Homo sapiens, UniProt P54646); assay: KINOMEscan panel screen; type: binding; conditions: read-out: Percent Control(%)
T36 construct: purchased DiscoveRx KINOMEscan (Ambit Biosciences)

[42] = molecular target: T37, MAST1 (Homo sapiens, UniProt Q9Y2H9); assay: KINOMEscan panel screen; type: binding; conditions: read-out: Percent Control(%)
T37 construct: purchased DiscoveRx KINOMEscan (Ambit Biosciences)

[43] = molecular target: T38, HASPIN (Homo sapiens, UniProt Q8TF76); assay: KINOMEscan panel screen; type: binding; conditions: read-out: Percent Control(%)
T38 construct: purchased DiscoveRx KINOMEscan (Ambit Biosciences)

O=C(Nc1ccc(Oc2ncnc3[nH]ncc23)cc1)Nc1ccc(Cl)c(C(F)(F)F)c1 [Compound 1, 1-(4-(1H-pyrazolo[3,4-d]pyrimidin-4-yloxy)phenyl)-3-(4-chloro-3-(trifluoromethyl)phenyl)urea]
IC50 [1]: > 10 µM

CC(C)(C)c1cc(NC(=O)Nc2ccc(Oc3ncnc4[nH]ncc34)c(F)c2)no1 [SKLB-677, 1-(4-(1H-pyrazolo[3,4-d]pyrimidin-4-yloxy)-3-fluorophenyl)-3-(5-tert-butylisoxazol-3-yl)urea]
remaining binding at 10 µM [2]: 0.2% | remaining binding at 10 µM [3]: 26% | remaining binding at 10 µM [4]: 97% | remaining binding at 10 µM [5]: 38% | remaining binding at 10 µM [6]: 0% | remaining binding at 10 µM [7]: 1.4% | remaining binding at 10 µM [8]: 11% | Kd [9]: 99 nM | remaining binding at 10 µM [10]: 46% | Percent Control(%) [11]: 0.05% | remaining binding at 10 µM [12]: 0.2% | remaining binding at 10 µM [13]: 68% | Kd [14]: 12 nM | remaining binding at 10 µM [15]: 35% | remaining binding at 10 µM [16]: 74% | remaining binding at 10 µM [17]: 100% | remaining binding at 10 µM [18]: 7.2% | remaining binding at 10 µM [19]: 100% | IC50 [20]: 0.116 nM | IC50 ([20]; read-out: Cell viability IC50): 0.116 nM | remaining binding at 10 µM [21]: 100% | remaining binding at 10 µM [22]: 0.3% | remaining binding at 10 µM [23]: 71% | remaining binding at 10 µM [24]: 11% | remaining binding at 10 µM [25]: 1.9% | Percent Control(%) [26]: 61% | remaining binding at 10 µM [27]: 100% | remaining binding at 10 µM [28]: 76% | Kd [29]: 5.1 nM | remaining binding at 10 µM [30]: 100% | remaining binding at 10 µM [31]: 3.2% | remaining binding at 10 µM [32]: 24% | remaining binding at 10 µM [33]: 100% | remaining binding at 10 µM [34]: 0.95% | remaining binding at 10 µM [35]: 22% | remaining binding at 10 µM [36]: 40% | remaining binding at 10 µM [37]: 2% | remaining binding at 10 µM [38]: 0.85% | remaining binding at 10 µM [39]: 52% | remaining binding at 10 µM [40]: 74% | remaining binding at 10 µM [41]: 7.8% | remaining binding at 10 µM [42]: 100% | remaining binding at 10 µM [43]: 42%
